Source: publication PMC7818428, “Potential Dental Biofilm Inhibitors: Dynamic Combinatorial Chemistry Affords Sugar‐Based Molecules that Target Bacterial Glucosyltransferase” (Chemmedchem, 2020)

Molecular target: T1, GTF180-ΔN (GTF180) (Limosilactobacillus reuteri, UniProt Q5SBN3)
T1 construct: N-terminally truncated GTF180-ΔN (catalytic and C-terminal domains), 117 kDa
Experiment: UPLC-MS of dynamic combinatorial library (cleavage to A1H8)
Assay type: biochemical
Details: 30 μM protein, mixture of library members with 10 mM aniline, pH 5.2, 10 % DMSO, room temperature

T1 sequence (Q5SBN3 entry or part of it, stated change not applied): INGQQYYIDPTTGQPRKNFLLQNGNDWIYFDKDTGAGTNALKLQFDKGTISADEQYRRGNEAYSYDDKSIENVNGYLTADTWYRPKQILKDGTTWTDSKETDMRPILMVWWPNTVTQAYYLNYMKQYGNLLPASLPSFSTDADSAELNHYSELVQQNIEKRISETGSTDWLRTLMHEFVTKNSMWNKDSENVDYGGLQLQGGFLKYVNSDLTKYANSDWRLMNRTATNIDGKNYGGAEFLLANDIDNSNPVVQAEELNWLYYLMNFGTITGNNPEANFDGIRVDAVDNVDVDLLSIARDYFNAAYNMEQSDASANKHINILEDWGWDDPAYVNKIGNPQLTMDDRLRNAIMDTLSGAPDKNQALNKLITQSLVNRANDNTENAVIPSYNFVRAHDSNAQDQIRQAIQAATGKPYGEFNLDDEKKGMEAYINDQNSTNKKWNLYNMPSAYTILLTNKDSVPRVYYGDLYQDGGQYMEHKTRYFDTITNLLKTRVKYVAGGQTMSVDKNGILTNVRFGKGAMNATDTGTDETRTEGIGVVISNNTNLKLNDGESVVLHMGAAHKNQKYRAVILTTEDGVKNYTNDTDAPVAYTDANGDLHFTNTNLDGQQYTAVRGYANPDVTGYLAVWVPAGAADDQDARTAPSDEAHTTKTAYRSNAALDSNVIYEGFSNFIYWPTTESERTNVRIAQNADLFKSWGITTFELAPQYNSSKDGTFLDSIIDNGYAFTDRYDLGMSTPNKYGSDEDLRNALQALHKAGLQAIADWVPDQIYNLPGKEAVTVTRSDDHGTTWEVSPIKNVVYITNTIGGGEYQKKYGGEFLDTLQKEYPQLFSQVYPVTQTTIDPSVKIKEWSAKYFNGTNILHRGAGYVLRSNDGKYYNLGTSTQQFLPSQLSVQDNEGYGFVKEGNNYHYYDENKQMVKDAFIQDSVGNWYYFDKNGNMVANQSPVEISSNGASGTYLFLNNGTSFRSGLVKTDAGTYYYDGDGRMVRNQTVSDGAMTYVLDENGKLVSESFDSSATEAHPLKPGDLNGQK

For `O=C(CC1CCCC1)N/N=C/c1ccc(O[C@@H]2O[C@H](CO)[C@@H](O[C@H]3O[C@H](CO)[C@@H](O)[C@H](O)[C@H]3O)[C@H](O)[C@H]2O)cc1` [A2H8], the “UPLC-MS of dynamic combinatorial library (cleavage to A1H8)” value was “maltose‐derived acylhydrazones A2H2 and A2H8 with a lipophilic”.
